Experimental data published in patent US9534209B2, “Methods and tools for identification of RSK/MSK kinase inhibitors” (Aarhus Universitet, priority 2012, dated 2017).
Structures can show the parent of a compound that is named as a salt.

Experiments:
[1] = molecular target: T1, C-terminal kinase domain of murine RSK2 (Mus musculus, UniProt P18654); experiment: X-ray co-crystal structure of RSK2 C-terminal kinase domain with DMF; assay type: binding; conditions: 1.9 Å resolution X-ray crystal structure; RSK2 8 mg/ml with 5 mM DMF, 30 min at room temperature
T1 construct: His8 (N, cleaved yes); linker DYDIPTT (N, cleaved yes); TEV protease site ENLYFQG (only the final G remains after cleavage) (N, cleaved yes); made in house; host or cells: E. coli BL21 (DE3) Rosetta, RSK2-pET-22b
T1 sequence (P18654 with tags, fused parts or gaps): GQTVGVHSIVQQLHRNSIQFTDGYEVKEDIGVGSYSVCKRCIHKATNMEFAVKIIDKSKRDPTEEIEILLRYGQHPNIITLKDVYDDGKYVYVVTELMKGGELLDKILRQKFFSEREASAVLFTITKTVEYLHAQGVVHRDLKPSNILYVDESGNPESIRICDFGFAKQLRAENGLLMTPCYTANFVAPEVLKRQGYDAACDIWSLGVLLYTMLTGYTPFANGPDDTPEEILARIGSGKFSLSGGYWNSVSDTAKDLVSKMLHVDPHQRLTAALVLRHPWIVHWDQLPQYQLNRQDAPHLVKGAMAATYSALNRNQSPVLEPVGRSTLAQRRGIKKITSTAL
Source text: A construct of the C-terminal kinase domain of murine Ribosomal S6 Kinase 2 (RSK2) (residues 400-740; SEQ ID NO. 2) including a N-terminal polyhistidine tag (His8), a linker (DYDIPTT) (SEQ ID NO: 21) and a Tobacco Etch Virus (TEV) protease site (ENLYFQG) (SEQ ID NO: 22) in the expressed kinase was designed and ordered from Genscript. The synthesised gene was subcloned into pET-22b (Novagen) by the vendor resulting in RSK2-pET-22b. BI21 (DE3) Rosetta was transformed with RSK2-pET-22b and plated on lysogeny broth (LB) agar plates supplemented with 50 μg/ml ampicillin (Amp) and 35 μg/ml Chloramphenicol (Cam). 5 colonies were used for inoculation of a 20 ml LB overnight culture supplemented with 100 μg/ml Amp and 35 μg/ml Cam. 2 liters of LB, supplemented with 100 μg/ml Amp and 35 μg/ml Cam, was inoculated with the overnight culture and grown at 37° C. Expression was induced with 0.1 mM isopropyl β-D-1-thiogalactopyranoside at an optical density of A600 nm=0.8 and the temperature was lowered to 20° C. for 3 h and further lowered to 12° C. for 20 hours. […] Protein concentration was evaluated by spectrophotometry (Nanodrop, Thermo Fisher Scientific) assuming εRSK2=44350 cm^−1 M^−1 and MRSK2=38.4 kDa. […] RSK2 purity was evaluated by SDS-PAGE using a 15% separation gel. […] The purification procedure resulted >95% pure and stable RSK2 evaluated by SDS-PAGE and mass spectrometry. […]

[2] = molecular target: T2, RSK2 cysteine 599 (C599) (Mus musculus, UniProt P18654); experiment: Mass spectrometric analysis of DMF modification of RSK2; assay type: binding, murine; conditions: chymotrypsin digest, MALDI TOF/TOF
T2 construct: His8 (N, cleaved yes); linker DYDIPTT (N, cleaved yes); TEV protease site ENLYFQG (only the final G remains after cleavage) (N, cleaved yes); made in house; host or cells: E. coli BL21 (DE3) Rosetta, RSK2-pET-22b
T2 sequence (P18654 with tags, fused parts or gaps): as above
Source text: A construct of the C-terminal kinase domain of murine Ribosomal S6 Kinase 2 (RSK2) (residues 400-740; SEQ ID NO. 2) including a N-terminal polyhistidine tag (His8), a linker (DYDIPTT) (SEQ ID NO: 21) and a Tobacco Etch Virus (TEV) protease site (ENLYFQG) (SEQ ID NO: 22) in the expressed kinase was designed and ordered from Genscript. The synthesised gene was subcloned into pET-22b (Novagen) by the vendor resulting in RSK2-pET-22b. BI21 (DE3) Rosetta was transformed with RSK2-pET-22b and plated on lysogeny broth (LB) agar plates supplemented with 50 μg/ml ampicillin (Amp) and 35 μg/ml Chloramphenicol (Cam). 5 colonies were used for inoculation of a 20 ml LB overnight culture supplemented with 100 μg/ml Amp and 35 μg/ml Cam. […] Protein concentration was evaluated by spectrophotometry (Nanodrop, Thermo Fisher Scientific) assuming εRSK2=44350 cm^−1 M^−1 and MRSK2=38.4 kDa. […] RSK2 purity was evaluated by SDS-PAGE using a 15% separation gel. […] The purification procedure resulted >95% pure and stable RSK2 evaluated by SDS-PAGE and mass spectrometry.
RSK2 samples were reduced and alkylated with iodoacetamide, i.e. carbamidomethylated, and subsequently digested with chymotrypsin. […] The peptide mixture was analyzed in positive reflector mode for accurate peptide mass determination. […]

[3] = molecular target: T3, human MSK1 (Homo sapiens, UniProt O75582, C603V); experiment: Mutational study of MSK1 in EGF-stimulated HEK 293 cells, Western blot p-MSK1 (Ser376); assay type: cell-based; conditions: 140 μM DMF pre-incubated 1 hour, 1 ng/ml EGF for 30 minutes
T3 construct: expressed in transfected cells; host or cells: HEK-293, vector pEBG2T
T3 sequence (O75582 whole entry C603V): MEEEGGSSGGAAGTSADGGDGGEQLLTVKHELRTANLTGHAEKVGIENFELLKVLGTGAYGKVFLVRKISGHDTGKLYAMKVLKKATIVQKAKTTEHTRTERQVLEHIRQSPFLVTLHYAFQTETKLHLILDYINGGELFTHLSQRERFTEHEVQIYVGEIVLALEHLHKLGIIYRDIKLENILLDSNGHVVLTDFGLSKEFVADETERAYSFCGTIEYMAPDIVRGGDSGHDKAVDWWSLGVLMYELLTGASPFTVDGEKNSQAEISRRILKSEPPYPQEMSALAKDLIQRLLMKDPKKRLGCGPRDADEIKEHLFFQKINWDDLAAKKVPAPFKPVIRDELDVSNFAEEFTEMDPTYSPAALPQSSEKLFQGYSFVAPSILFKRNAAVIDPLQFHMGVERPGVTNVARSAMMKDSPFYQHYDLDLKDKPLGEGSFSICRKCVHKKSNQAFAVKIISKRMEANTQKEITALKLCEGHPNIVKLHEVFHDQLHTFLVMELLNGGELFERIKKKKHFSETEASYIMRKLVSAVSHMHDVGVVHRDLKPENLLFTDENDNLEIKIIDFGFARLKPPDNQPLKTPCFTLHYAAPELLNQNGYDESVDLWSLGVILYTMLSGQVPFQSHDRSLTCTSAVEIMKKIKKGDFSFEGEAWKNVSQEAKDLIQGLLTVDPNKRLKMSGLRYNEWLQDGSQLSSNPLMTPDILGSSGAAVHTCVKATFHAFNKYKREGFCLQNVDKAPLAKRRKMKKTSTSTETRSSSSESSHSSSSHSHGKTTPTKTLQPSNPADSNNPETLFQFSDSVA
Description: Mutational analysis of MSK1 was performed in a mammalian expression vector (pEBG2T) in which a glutathione S-transferase (GST) domain and FLAG-tag (Asp-Tyr-Lys-Asp-Asp-Asp-Asp-Lys) was fused to the N-terminus of human MSK1 (GST-FLAG-MSK1)^6. The positions corresponding to C436, T579 and C599 in murine RSK2 (SEQ ID NO: 1) of human MSK1 (C440, T583 and C603) were mutated to Val, Ser and Thr (For T583 only an Ala mutation was performed) using the QuikChange Lightning Kit (Agilent Technologies).
Human embryonic kidney cells (HEK-293) were cultured in tissue culture flasks (150 cm^2) to 60% confluence in Dulbecco's modified Eagle's medium (DMEM) (Gibco) supplemented with 50 units/ml penicillin G (Gibco), […] streptomycin (Invitrogen), 5 μg/ml gentamycin (Gibco), 10% (v/v) foetal bovine serum (FBS) (Gibco) and 2.5% HEPES (Gibco). […]
Dimethylfumarate (DMF) (Sigma-Aldrich) was dissolved in dimethylsulfoxide (DMSO) (Merck) resulting in a 70 mM stock solution and diluted to 7 mM (4% v/v DMSO) in culture medium. […] Densitometry analysis of the band intensity was performed on a flatbed scanner (Epson PERFECTION V750PRO) and quantitated by Jelly Quant. […]

[4] = molecular target: T4, RSK2 (Mus musculus, UniProt P18654, C599V); experiment: Mutational study of RSK2 in EGF-stimulated HEK 293 cells, Western blot p-RSK2 (Ser386); assay type: cell-based; conditions: 140 μM DMF pre-incubated 1 hour, 1 ng/ml EGF for 15 minutes
T4 construct: expressed in transfected cells; host or cells: HEK-293
T4 sequence (P18654 whole entry C599V): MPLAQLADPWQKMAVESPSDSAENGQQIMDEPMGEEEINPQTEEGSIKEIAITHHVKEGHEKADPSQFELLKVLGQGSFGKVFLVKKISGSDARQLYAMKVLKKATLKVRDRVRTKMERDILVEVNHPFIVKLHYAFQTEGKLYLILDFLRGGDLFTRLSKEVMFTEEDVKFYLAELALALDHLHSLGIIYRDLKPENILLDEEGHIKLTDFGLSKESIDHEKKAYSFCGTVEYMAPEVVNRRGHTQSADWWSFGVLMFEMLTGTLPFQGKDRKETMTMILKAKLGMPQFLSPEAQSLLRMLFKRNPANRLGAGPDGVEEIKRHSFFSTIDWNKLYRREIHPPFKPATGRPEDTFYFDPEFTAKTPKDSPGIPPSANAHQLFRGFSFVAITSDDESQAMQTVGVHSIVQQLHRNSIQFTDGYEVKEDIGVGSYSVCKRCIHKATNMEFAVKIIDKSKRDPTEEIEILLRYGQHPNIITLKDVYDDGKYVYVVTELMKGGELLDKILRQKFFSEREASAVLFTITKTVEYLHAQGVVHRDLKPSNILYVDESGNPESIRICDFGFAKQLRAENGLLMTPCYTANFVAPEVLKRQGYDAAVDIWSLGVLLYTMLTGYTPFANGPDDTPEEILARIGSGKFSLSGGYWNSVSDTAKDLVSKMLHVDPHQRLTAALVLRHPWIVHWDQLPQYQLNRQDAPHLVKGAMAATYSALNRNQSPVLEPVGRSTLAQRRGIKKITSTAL
Description: Human embryonic kidney cells (HEK-293) were cultured in tissue culture flasks (150 cm^2) to 60% confluence in Dulbecco's modified Eagle's medium (DMEM) (Gibco) supplemented with 50 units/ml penicillin G (Gibco), […] streptomycin (Invitrogen), 5 μg/ml gentamycin (Gibco), 10% (v/v) foetal bovine serum (FBS) (Gibco) and 2.5% HEPES (Gibco). Cells were trypsinated and seeded in 10 cm petri dishes at a density of 6.5×10^6 cells per dish in 10 ml DMEM supplemented with 50 μg/ml bovine pituitary growth hormone (BGH) (Gibco), antibiotics (penicillin G, streptomycin, gentamycin) and 2% FBS and 2.5% HEPES and were incubated for 2 days. The culture medium was changed to 7 ml DMEM supplemented with 2.5% Hepes for 16 hours. Transfection with plasmids was performed as previously described Jensen et al. 1999^57 with modifications. HEK-293 cells were transfected using 3.5 μg plasmid DNA/dish dissolved in 250 μl Optimem (Invitrogen) and 30 μl Lipofectamine 2000 (Invitrogen) dissolved in 250 μl Optimem added together for 20 minutes before transferred to cells. […]
Dimethylfumarate (DMF) (Sigma-Aldrich) was dissolved in dimethylsulfoxide (DMSO) (Merck) resulting in a 70 mM stock solution and diluted to 7 mM (4% v/v DMSO) in culture medium. […] Densitometry analysis of the band intensity was performed on a flatbed scanner (Epson PERFECTION V750PRO) and quantitated by Jelly Quant.

COC(=O)/C=C/C(=O)OC [DMF, dimethyl fumarate]
binding of DMF to RSK2 in co-crystal structure [1]: binding of one DMF molecule to RSK2 | covalent modification of C599 of RSK2 by DMF [2]: Covalent modification of C599 was identified | effect of DMF on phosphorylation of S376 of MSK1 mutant C603 to valine [3]: no decrease in the phosphorylation of S376 was observed | effect of DMF on phosphorylation of S386 of RSK2 mutant C599 to valine [4]: no decrease in the phosphorylation of S386 was observed
